The source of these data is US20250090557A1 (priority 2020, published 2025).

SMILES strings stand for the structures.

Series [1] deals with SARS-CoV-2. Briefly: SARS-CoV-2 infection of air-liquid interface human airway epithelium cultures (flow cytometry). Type of series: cell-based. As to conditions: 100 nM, 72 h.
In series [2] the test system is mitochondrial reactive oxygen species (mito-ROS). It is filed as cell-based, human.
The test system of the next series is MAVS. As to the kind of experiment: MAVS protein levels in Calu3 cells (flow cytometry). The conditions noted are these: total and SARS-CoV-2 infected Calu3 cells, data not shown. It is filed as cell-based, human.
The test system of the next series is STING. Briefly: STING protein levels in Calu3 cells (flow cytometry). Type of series: cell-based, human. As to conditions: SARS-CoV-2 infected Calu3 cells, data not shown.
A further series deals with MX1. Type of series: cell-based, human. As to conditions: infected Calu3, vs vehicle treated.
The subject of another series is IL-6. It is filed as cell-based, human.
The subject of series [3] is SARS-CoV-2. Briefly: SARS-CoV-2 infection of K18-hACE2 transgenic mice, lung viral titer. Type of series: in vivo, mouse. The conditions noted are these: 4 mg/kg per day intraperitoneally, 72 h post infection. The method, then:
K18-hACE2 transgenic mice were infected with SARS-CoV-2 (10,000 PFU per mouse) intranasally and treated with Mito-MES (4 mg/kg per day intraperitoneally) (n=10) vs vehicle control (Ctrl) (saline 1% DMSO) (n=5 mice). Five mice (n=5) were treated with Mito-MES for 48 h before SARS-COV-2 infection and throughout the infection for 3 days (5 days in total) until mice were sacrificed 72 h post infection. Five mice (n=5) were treated with Mito-MES 8 h after the infection for 3 days (3 days in total) until mice were sacrificed 72 h post infection. The left lung was harvested from all mice, tissue was homogenized in mechanical dissociator and the supernatant was cryopreserved until it was used for viral titer. Viral titer was determined by two independent methods based on cytopathic effect (CPE) effect in Vero-E6 cells and based on an ELISA immunoassay that detected the presence of SARS-CoV-2 Spike S protein in Vero-E6 cells infected with lung supernatants from infected mice. FIG. 7-a summarizes the results of the viral replication by TCID50-assay based on CPE method. FIG. 7-b summarizes the results of the viral replication by TCID50-assay based on ELISA assay. Bars indicate mean±s.e.m.
The in vivo antiviral activity of Mito-MES was evaluated in mice. […] Specifically, K18-hACE2 transgenic mice, which express human ACE2, were infected with SARS-CoV-2.

The conditions of series [4]: humans, doses up to at least 80 mg/day for at least a year; cited from earlier work.

Turning to `COC1=C(OC)C(=O)C(CCCCCCCCCC[P+](c2ccccc2)(c2ccccc2)c2ccccc2)=C(C)C1=O.CS(=O)(=O)[O-]` [Mito-MES, 10-(4,5-dimethoxy-2-methyl-3,6-dioxo-1,4-cyclohexadienyl) decyl triphenylphosphonium methanesulfonate], in the series with SARS-CoV-2 [1] (ALI HAE cultures), the “percent of SARS-CoV-2 infected FOXJ1+ ciliated epithelial cells (flow cytometry)” value is “significantly reduced the percent of SARS-CoV-2 infected human FOXJ1^+ ciliated epithelial cells”. Also, in the series on SARS-CoV-2 [1] (primary HAE ALI cultures), the “percent of SARS-CoV-2 infected human lung epithelial cells (flow cytometry)” value was “significantly reduced the percent of SARS-CoV-2 infected human lung epithelial cells”. Further, in series [2], the “mito-ROS generation (MitoSOX Red MFI and percent positive cells)” value is “reduced mito-ROS generation”. In the series on MAVS, the MAVS protein levels result is “did not modulate MAVS protein levels”. Further, the STING protein levels result in the series on STING was “did not impact STING”. Moreover, the MX1 protein levels result in the series on MX1 is reported as “increased MX1 protein levels”. Further, in the series with IL-6, the “secretion of IL-6 resulting from SARS-CoV-2 infection (ELISA)” value was “attenuated the increase in secretion of IL-6”. In the series with SARS-CoV-2 [3], the “lung viral titers (TCID50 by CPE and ELISA) compared to vehicle” value is “viral titers were lower”. For the same compound, the adverse events result in series [4] is “without any serious adverse events”.
